# Tested on: T1, CLas GMPS
# T1 construct: gene guaA
# Conditions: read-out: (NH4)2SO4, Km mM; saturating XMP and ATP, 20 mM MgCl2, pH 8.5; salt printed as (NH4)2SO4 in table, NH4Cl in methods; text prints 10.9 ± 1.9 mM
structure (smiles),measurement,value
N [NH4+],Km,10.9 ± 1.3 mM

# Source: article PMC8301025 (Biology, 2021)
